Measurements: patent US20230337671A1, “DISINFECTANT COMPOSITION” (Helperby Therapeutics Limited, priority 2020, published 2023)

How the values were obtained:
Assay type in all cases: physicochemical
[1] = Preparation of 0.03% w/w HT61 solution in demineralised water, UV-Vis check; settings: 0.075 g HT61 solid added to 250 ml demineralised water (0.03% w/w)
Experimental: (§1) To support the use of a low concentration of HT61 acting as an emollient in an aqueous disinfectant composition, the surface tension, contact angle and hydrophilic lipophilic balance (HLB) of this compound were determined. • Sample Preparation: A 0.03% w/w solution was required for both the contact angle and surface tension measurements. This solution was prepared by adding 0.075 g of the HT61 solid (obtained according to the method set out in WO 2007/054693 A1 discussed above) to 250 ml of demineralised water. Some solid remained in solution so analysis was carried out using UV-Vis Spectroscopy. […] The surface tension of the sample was measured using a DataPhysics DCAT 9 tensionmeter and the Wilhelmy plate method. The measurement was made three times, with the plate being cleaned between each measurement. • The contact angle was measured on the surface of parafilm. A sample of parafilm was wrapped around a glass slide and the protective film removed. The contact angle of the liquid with the parafilm was measured by placing a small (e.g. 2 μl) drop of test liquid (the sample) on the test surface. The profile of the drop was measured as a function of time using a DataPhysics OCA 35. Each liquid was measured three times. The contact angles were determined 2 s, 12 s and 30 s after the drop first touched the surface. […]

[2] = Contact angle of a drop on the surface of parafilm (DataPhysics OCA 35); settings: 0.03% w/w solution
Experimental: To support the use of a low concentration of HT61 acting as an emollient in an aqueous disinfectant composition, the surface tension, contact angle and hydrophilic lipophilic balance (HLB) of this compound were determined. • Sample Preparation: A 0.03% w/w solution was required for both the contact angle and surface tension measurements. This solution was prepared by adding 0.075 g of the HT61 solid (obtained according to the method set out in WO 2007/054693 A1 discussed above) to 250 ml of demineralised water. Some solid remained in solution so analysis was carried out using UV-Vis Spectroscopy. […] The surface tension of the sample was measured using a DataPhysics DCAT 9 tensionmeter and the Wilhelmy plate method. The measurement was made three times, with the plate being cleaned between each measurement. • The contact angle was measured on the surface of parafilm. A sample of parafilm was wrapped around a glass slide and the protective film removed. The contact angle of the liquid with the parafilm was measured by placing a small (e.g. 2 μl) drop of test liquid (the sample) on the test surface. The profile of the drop was measured as a function of time using a DataPhysics OCA 35. Each liquid was measured three times. The contact angles were determined 2 s, 12 s and 30 s after the drop first touched the surface. For reference, the contact angle of demineralised water was also measured. • The HLB Value was obtained using […] mathematical method (Griffin, W.C., Calculation of HLB Values of Non-Ionic Surfactants, Journal of the Society of Cosmetic Chemists, 1954, 5(4), 249-56): • [formula] • where Mh is the molecular weight of hydrophilic groups (44 gmol^-1) and M is the molecular weight of the whole molecule (380 gmol^-1). • The factor 20 is a scaling factor. Thus a scale of 1 to 20 is generally obtained.

[3] = Surface tension, Wilhelmy plate method (DataPhysics DCAT 9 tensionmeter); settings: 0.03% w/w HT61 in demineralised water, assumed saturated; measured three times
Experimental: as §1

## Cc1nc2ccc(Oc3ccccc3)cc2c2c1CCN2CCc1ccccc1 [HT61, 4-methyl-8-phenoxy-1-(2-phenylethyl)-2,3-dihydro-1H-pyrrolo[3,2-c]quinoline]
[1]
  Dissolution of HT61 solid in demineralised water: the solution was saturated
[2]; 2 s after drop touched surface
  Average Contact Angle @2s: 98
[2]; 12 s after drop touched surface
  Average Contact Angle @12s: 96
[2]; 30 s after drop touched surface
  Average Contact Angle @30s: 96
[3]
  Average Surface Tension: 55.7 mN/m
